Reference: publication PMC9320607, “Synthesis, Biological Evaluation and Docking Studies of Ring-Opened Analogues of Ipomoeassin F” (Molecules, 2022)

Legend:
[1] = tested on: HCT116 Sec61α-WT cells; assay: Resazurin-based cell viability assay in HCT116 Sec61α-WT cells; set-up: species or system human; details: HCT116 Sec61α-WT cells, 72 h
Method: Parental (Sec61α-WT) […] All cell lines were maintained in a 5% CO2 humidified incubator at 37 °C. Cytotoxicity assays were performed in triplicate sets as previously described and viable cells were counted using an automated cell counter (Bio-Rad TC20) immediately before each experiment. Compound stock solutions in DMSO (10 mM) were diluted with supplemented culture media (MDA-MB-231 cells: high glucose DMEM; HCT116 Sec61α-WT and Sec61α-G80W cells: McCoy’s (modified) 5A) to make a series of gradient fresh working solutions at equal DMSO percentage immediately prior to each test. […] For MDA-MB-231 cells, the media were discarded and […] fresh medium containing 10% (v/v) alamarBlue HS cell viability reagent (resazurin stock solution) (ThermoFisher, Waltham, MA, USA, A50100) was added to each well. For Sec61α-WT or Sec61α-G80W HCT-116 cells, the media was not discarded and alamarBlue HS cell viability reagent (resazurin stock solution) (ThermoFisher, Waltham, MA, USA, A50100) was added to 10% (v/v). After that, all cells were incubated at 37 °C for a further 1–3 h and the emission of each well at 620 nm was detected using a Synergy H1 Hybrid multi-mode plate reader (BioTek, Agilent Technologies, Palo Alto, CA, USA) at excitation 580 nm. […] IC50 value estimates were determined using nonlinear regression to fit data to a curve of variable slope (four parameters) using the least-squares fitting method.

[2] = tested on: HCT116 Sec61α-G80W cells; assay: Resazurin-based cell viability assay in HCT116 Sec61α-G80W cells; set-up: species or system human; details: 50 nM, 72 h
Excerpt: To confirm that Sec61α is the primary target of open-chain analogues and that this interaction underlies their cytotoxic effects, we next used a resazurin-based cell viability assay (Figure 3F) to compare the effects of each compound on the growth of HCT-116 cells that were wild-type for Sec61α (HCT116 Sec61α-WT) or carrying a heterozygous point mutant in SEC61A1 (HCT116 Sec61α-G80W) that confers resistance to Ipom-F, and reduces binding of mycolactone to the Sec61 translocon by mechanism that involves an alteration in translocon dynamics.
The human breast cancer cell line (MDA-MB-231) was maintained in a DMEM high glucose culture medium supplemented with 10% (v/v) fetal bovine serum (FBS) and 2 mM L-glutamine. […] Cytotoxicity assays were performed in triplicate sets as previously described and viable cells were counted using an automated cell counter (Bio-Rad TC20) immediately before each experiment. […] After that, all cells were incubated at 37 °C for a further 1–3 h and the emission of each well at 620 nm was detected using a Synergy H1 Hybrid multi-mode plate reader (BioTek, Agilent Technologies, Palo Alto, CA, USA) at excitation 580 nm. […] IC50 value estimates were determined using nonlinear regression to fit data to a curve of variable slope (four parameters) using the least-squares fitting method. […]

[3] = biological target: T1, Sec61-mediated protein translocation (membrane integration of Ii) (Canis lupus familiaris, UniProt P38377); assay: In vitro membrane insertion assay of Ii with ER microsomes; type: biochemical, canine
T1 construct: cell-free translation system supplemented with ER microsomes derived from canine pancreas; from tissue; host or cells: canine pancreas ER microsomes (nuclease-treated); the Ii substrate was translated in vitro from T7-transcribed RNA
T1 sequence (P60058 whole entry): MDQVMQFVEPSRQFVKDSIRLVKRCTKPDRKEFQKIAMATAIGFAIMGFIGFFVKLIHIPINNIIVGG
T1 sequence (P38377 2-476): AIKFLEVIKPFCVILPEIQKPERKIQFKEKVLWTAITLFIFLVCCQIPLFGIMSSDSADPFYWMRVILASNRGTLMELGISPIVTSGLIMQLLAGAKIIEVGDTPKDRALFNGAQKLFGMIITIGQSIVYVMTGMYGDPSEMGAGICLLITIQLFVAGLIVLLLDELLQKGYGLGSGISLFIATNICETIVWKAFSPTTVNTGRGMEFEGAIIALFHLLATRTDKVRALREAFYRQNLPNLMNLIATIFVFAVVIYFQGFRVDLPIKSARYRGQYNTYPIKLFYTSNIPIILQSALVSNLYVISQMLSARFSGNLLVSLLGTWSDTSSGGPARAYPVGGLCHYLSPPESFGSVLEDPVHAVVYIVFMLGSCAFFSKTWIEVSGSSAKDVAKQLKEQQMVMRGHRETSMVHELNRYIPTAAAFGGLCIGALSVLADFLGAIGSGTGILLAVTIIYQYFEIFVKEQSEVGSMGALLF
T1 sequence (P60467 2-96, further chain): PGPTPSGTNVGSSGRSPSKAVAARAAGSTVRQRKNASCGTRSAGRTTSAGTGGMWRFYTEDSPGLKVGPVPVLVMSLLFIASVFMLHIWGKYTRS
Excerpt: Having previously established that the principal molecular basis for the cytotoxicity of Ipom-F is its strong, yet reversible, binding to Sec61α and the resultant wide-ranging blockade of Sec61-mediated protein translocation at the ER [13], we sought evidence that this mechanism also underlies the cytotoxic effects of 1 and other open-chain analogues. […] For comparative purposes, we analyzed the effects of 2 [13] and two closed-chain compounds: Ipom-F and the diester-modified analogue 22 [11] in parallel (Figure 3A).
Following the resolution of radiolabeled proteins by SDS-PAGE (Figure 3B), we used the efficiency with which the N-terminal domain of the type II integral membrane protein Ii (short form of HLA class II histocompatibility antigen gamma chain, isoform 1) was N-glycosylated inside the ER lumen as a robust reporter for the authentic membrane integration of this model Sec61-dependent protein client (Figure 3B, right upper panel, 0Gly versus 2 Gly forms).
(§1) Linear DNA of the short form of human HLA class II histocompatibility antigen gamma chain (Ii; P04232, […], residues 17–232) or human glycophorin C (GypC; P04921) were generated by PCR and transcribed into RNA using T7 RNA polymerase (Promega). Membrane insertion assays (20 µL, 1 h at 30 °C, containing 6.5% (v/v) nuclease-treated ER microsomes (from stock with OD280 = 44/mL)), endoglycosidase Hf (New England Biolabs) treatment, sample resolution by SDS-PAGE (16% polyacrylamide gels) and gel drying were performed as previously described. Following exposure to a phosphorimaging plate for 24–72 h, radiolabeled products were visualized using a Typhoon FLA-7000 (GE Healthcare, Tokyo, Japan) and the ratio of the signal intensity for the N-glycosylated (XGly) and non-glycosylated (0Gly) forms obtained using AIDA v.5.0 (Raytest Isotopenmeβgeräte). This value was then expressed relative to the matched DMSO control (set to 100%) in order to estimate the mean relative insertion (± SEM) from insertion experiments performed in triplicate (n = 3, biologically independent experiments). IC50 value estimates were determined in Prism 8 (GraphPad, San Diego, CA, USA) using nonlinear regression to fit data to a curve of variable slope (four parameters) using the least-squares fitting method, with the top and bottom plateaus of the curve defined as 100% and 7.67% (the mean of all data at 500 µM across all compounds), respectively.

[4] = tested on: membrane integration of GypC; assay: In vitro membrane insertion assay of GypC with ER microsomes (selectivity control); type: biochemical, canine; details: 1 µM compound
Method: Following the successful synthesis of analogue 3, we first analyzed its effects on the in vitro membrane integration of our two model protein substrates, Ii and GypC (Figure 6A–C).
as §1, with “IC50 value estimates were determined in Prism 8 (GraphPad, San Diego, CA, USA) using nonlinear regression to fit data to a curve of variable slope (four parameters) using the least-squares fitting method, with the top and bottom plateaus of the curve defined as 100% and 7.67% (the mean of all data at 500 µM across all compounds), respectively.” left out

With `CC=C(C)C(=O)OC1C(O)C(OC2C(OC(CCCCC)CCCCC)OC(C)C(OC(C)=O)C2O)OC(COC(=O)CCC(=O)OCCCC)C1OC(=O)C=Cc1ccccc1` (stereo not drawn) [analogue 3] the cell death ([1]; 50 nM) was ~ 58%, the IC50 ([1]; Homo sapiens, HCT-116, titration 25 µM–1 nM, read-out: IC50 (cytotoxicity)) was 0.04 µM and the “effect on cell viability” value [2] was “cell death was not observed”. For the same compound, the “reduction in Ii membrane integration” value ([3]; 1 µM compound) was 73–86%, the IC50 ([3]; estimated from titration 500 µM–5 nM, read-out: IC50 (in vitro membrane integration of Ii)) was 0.242 µM and the “effect on membrane integration of GypC” value [4] was “did not affect”.
